Results from ChEMBL document CHEMBL1157539, “Thousands of chemical starting points for antimalarial lead identification” (Nature, 2010).

test system: Plasmodium falciparum; experiment: GSK_TCMDC: Inhibition of Plasmodium falciparum 3D7 in whole erythrocytes, using parasite LDH activity as an index of growth.; assay type: functional, organism-based; details: Plasmodium falciparum, 3D7

SMILES | XC50
COc1cc(NC(=O)/C=C/c2ccc(-c3ccccc3)cc2)ccc1OCCN(C(C)C)C(C)C | 0.843 µM
COc1ccc(S(=O)(=O)N2CCOCC2)cc1NC(=O)c1cc2ccccc2o1 | 0.795 µM
O=C(Nc1ccc(Cl)cc1)Nc1ccc(OCC(O)CN2CCCCC2)cc1 (stereo unspecified) | 1.16 µM
Nc1nc(N)c2cc(NS(=O)(=O)c3ccc(-c4ccccc4)cc3)ccc2n1 | 0.699 µM
CS(=O)(=O)c1ccc(CNCc2ccc(-c3cccc(-c4nc5cc(C(F)(F)F)ccc5[nH]4)c3)cc2)cc1 | 0.138 µM
COc1ccc(S(=O)(=O)N(c2cc(Br)cc3c2OCC3)S(=O)(=O)c2ccc(OC)c(N3CCN(C)CC3)c2)cc1N1CCN(C)CC1 | 1.17 µM
Cc1ccn2c(N(Cc3ccccc3)C(=O)c3ccc(Cl)c(Cl)c3)c(-c3ccccc3)nc2c1 | 0.987 µM
Cc1nccn1Cc1cc(C(C)(C)C)c(O)c(C(C)(C)C)c1 | 0.788 µM
CCN(CC)CC(O)Cc1c2ccc([N+](=O)[O-])cc2nc2cc(OC)c(OC)cc12 (stereo unspecified) | 0.739 µM
CC(Oc1ccc(Cl)cc1Cl)c1nc(-c2ccc(NC(=O)c3ccco3)cc2)no1 (stereo unspecified) | 0.905 µM
c1ccc(Oc2ccc(Nc3ccnc4cc(-c5csc(CN6CCCCC6)n5)ccc34)cc2)nc1 | 0.579 µM
Cc1c(-c2ccc3c(c2)C(NCCCN2CCCCC2)CC3)cnc(N)c1C (stereo unspecified) | 1.11 µM
Cc1cc(=NN=Cc2ccc(Cl)cc2)c2cccc(C)c2[nH]1 | 0.723 µM
COc1cccc(C(=O)OC2=C3CCC(=O)C3(C)CCC2=O)c1 (stereo unspecified) | 0.0779 µM
COc1ccccc1CCNc1nc(C)cc(N[C@@H](Cc2ccccc2)C(=O)NCc2cccc(F)c2)n1 | 0.867 µM
Cc1cc2[nH]c(-c3ccc(C(=O)NCCCN4CCN(c5cccc(Cl)c5)CC4)cc3)nc2cc1Cl | 0.769 µM
CN1CCN(c2nc(NCCc3ccc(O)cc3)nc(NCc3ccccc3-c3ccc(C(F)(F)F)cc3)n2)CC1 | 0.971 µM
CC(C)C[C@H](Nc1ccnc(NCC2CCCCC2)n1)C(=O)NCCc1ccccc1 | 0.75 µM
O=C(NC1CCN(CCC[C@]2(c3ccc(Cl)c(Cl)c3)CCCN(C(=O)c3ccccc3)C2)CC1)c1ccc(Cl)cc1 | 0.899 µM
O=c1cc(NCCCNCc2sc(Br)nc2Br)[nH]c2ccccc12 | 0.866 µM
COc1cc2nccc(Nc3cccc(Oc4ccccc4)c3)c2cc1OC | 0.643 µM
O=C(NCCCN(Cc1ccc(F)cc1)c1ccccn1)C(c1cc2ccccc2o1)N1CCN(C(c2ccccc2)c2ccccc2)CC1 (stereo unspecified) | 0.838 µM
FC(F)(F)c1ccc2[nH]c(-c3cccc(-c4ccc(CNCc5ccccc5)cc4)c3)nc2c1 | 0.163 µM
COc1ccccc1-n1ccnc1SCC(=O)Nc1cc(C(F)(F)F)ccc1Cl | 0.0093 µM

SMILES | XC50
CSCCC(C(=O)O)N1C(=O)c2ccccc2C1=O (stereo unspecified) | 1.03 µM
CC(CN(C)C)C(=O)Nc1ccc(-c2ccc(-c3nc4ccccc4[nH]3)cc2)cc1 (stereo unspecified) | 0.741 µM
CCCCCN1CCCCC(NS(=O)(=O)c2ccc(C(=O)Nc3ccc(C(F)(F)F)cc3)cc2)C1 (stereo unspecified) | 0.768 µM
COC(=O)c1cccc(CNCc2cccc(-c3cccc(-c4nc5cc(F)ccc5[nH]4)c3)c2)c1 | 0.129 µM
COc1cc(NC(=O)Nc2ccc([N+](=O)[O-])cc2OC)c(OC)cc1Cl | 1.47 µM
c1ccc(-c2cc(NCCCCCCCCNc3cc(-c4ccccc4)nc4ccccc34)c3ccccc3n2)cc1 | 0.395 µM
COc1cc2nc(NCc3ccc(S(N)(=O)=O)cc3)nc(Nc3ccc(Oc4ccccc4)cc3)c2cc1OC | 0.445 µM
O=S(=O)(Nc1cccc(CCN2CCCCC2CCN2CCCC2)c1)c1ccc(Oc2ccccc2)cc1 (stereo unspecified) | 1.05 µM
O=C1OC(c2ccccc2)(c2ccccn2)CN1C1CCN(Cc2cccn2-c2ccc(Cl)cc2)CC1 (stereo unspecified) | 0.475 µM
COc1ccc2c(c1)CCCC2NCCCCNC(=O)c1ccc(NC(=O)c2ccc(Cl)cc2)cc1 (stereo unspecified) | 0.381 µM
O=C(/C=C/c1ccc(Cl)cc1)NCCCCCN1CCC(c2c[nH]c3ccccc23)CC1 | 0.838 µM
Oc1cc(Nc2ccnc3cc(-c4ccc(CN5CCCCC5)o4)c(Cl)cc23)c(Cl)cc1F | 1.26 µM
O=C(/C=C/c1ccc(Cl)c(Cl)c1)NCCCCCN1CCCC(C(=O)Nc2ccc(F)c(Cl)c2)C1 (stereo unspecified) | 0.903 µM
CCC(=O)N[C@@H]1CN[C@@H](C#Cc2cc3c(Nc4ccc(OCc5cccc(F)c5)c(Cl)c4)ncnc3s2)C1 | 1.12 µM
O=c1cc(NCCC(CNCc2cc3ccccc3o2)NCc2cc(Br)cc(Br)c2)[nH]c2ccccc12 (stereo unspecified) | 1.21 µM
CC1(C)N=C(N)N=C(N)N1c1cc(Cl)c(Cl)c(Cl)c1 | 0.0114 µM
NC1=NC(c2ccccc2)(c2ccccc2)C(=O)N1CCOc1ccccc1 | 0.844 µM
Fc1ccc(NC(=S)NCCc2ccccc2)cc1 | 0.781 µM
COc1cc(C=CC(=O)N2CCC(CN3CCC(c4c[nH]c5ccccc45)CC3)CC2)cc(OC)c1 | 0.803 µM
c1ccc(-c2nnc(-c3ccccn3)nc2NC2CCCCC2)cc1 | 0.91 µM
COc1cccc(C(=O)Nc2nonc2-c2ccc(OC)c(OC)c2)c1 | 0.801 µM
COc1ccc(NC(=O)[C@H](Cc2ccccc2)Nc2cc(C)nc(NCC3CCCCC3)n2)cc1 | 0.678 µM
O=C(Cc1ccc(NC(=O)c2ccc(O)c(-c3cccc([N+](=O)[O-])c3)c2)cc1)NCCN1CCCCC1 | 0.895 µM
CCN(CC)CCOc1ccc(Nc2ncc3cc(-c4c(Cl)cccc4Cl)c(=O)n(C)c3n2)cc1 [PD-0166285] | 1.18 µM

SMILES | XC50
COc1cc(NC(=O)/C=C/c2cccc3ccoc23)ccc1OCCN(C(C)C)C(C)C | 1.04 µM
Fc1ccc2c(NN=CC=Cc3ccccc3)ccnc2c1 | 0.779 µM
Nc1nc(N)c2c(ccc3c2ccn3Cc2ccc3c(c2)OCO3)n1 | 0.0032 µM
CCCCCCN1CCCN(Cc2ccc(C(=O)Nc3ccc(C(C)C)cc3)cc2)CC1 | 0.834 µM
CN1c2ccccc2Sc2cc(CNCCSCCNCc3ccc4c(c3)Sc3ccccc3N4C)ccc21 | 1.01 µM
NCCCNc1nc(Nc2ccc(C(F)(F)F)cc2F)c2c(=O)[nH]ccc2n1 | 1.05 µM
CC/N=C(/NCCCCCCN/C(=N/CC)NCc1ccccc1)NCc1ccccc1 | 0.702 µM
O=C(Nc1cc(Cl)cc(Cl)c1)c1cnn(-c2ccc(F)cc2)c1C1CCNCC1 | 0.853 µM
CCOC(=O)CCc1cc(F)c(F)c(OC[C@H](O)CNC(C)(C)C(O)c2ccc3ccccc3c2)c1 (stereo partly specified) | 0.859 µM
COc1cc2nc(NCC3CCCO3)n3nc(-c4ccccc4)nc3c2cc1OC (stereo unspecified) | 0.211 µM
CCCCc1cc(NCc2ccncc2)nc(Nc2ccc(C)cc2)n1 | 0.794 µM
COc1ccc2nc3cc(Cl)ccc3c(Nc3ccc(Sc4ccc(Nc5c6ccc(Cl)cc6nc6ccc(OC)cc56)cc4)cc3)c2c1 | 0.199 µM
C=Cc1ccc(-c2c(C)[nH]c(C)c(Br)c2=O)cc1 | 0.556 µM
CCn1c(Sc2ccc(C#N)c([N+](=O)[O-])c2)nnc1-c1cccc(Cl)c1 | 0.446 µM
CCCCCCN1CCC(NCc2ccc(C)cc2)CC1 | 0.86 µM
Cc1[nH]c(C)c(-c2ccc(OCc3ccc(F)cc3)cc2)c(=O)c1Cl | 0.566 µM
CCC1(C)N=C(N)N=C(N)N1c1ccccc1 (stereo unspecified) | 0.792 µM
CCCCCCN(CCCCCC)CC(O)c1c(OC)ccc2ccccc12 (stereo unspecified) | 0.567 µM
Cc1ccc(Nc2nc(C)cc(NCc3ccc(-n4ccnc4)cc3)n2)cc1 | 1.01 µM
COc1ccc(CNC2CCN(C)CC2)cc1-c1ccc(S(=O)(=O)NCCc2ccccn2)s1 | 0.624 µM
Cc1ccc(S(=O)(=O)NC2=NC(=N)N(OCc3ccc(Cl)c(Cl)c3)C(C)(C)N2)cc1 | 1.14 µM
O=C(Cn1c(CCc2cccc(F)c2F)nc(=O)c2ccccc21)N(Cc1ccc(-c2ccc(C(F)(F)F)cc2)cc1)C1CCN(C2CCOCC2)CC1 | 0.745 µM
c1ccc(C(OCCC2CCN(Cc3cccnc3)CC2)c2ccccc2)cc1 | 0.817 µM
